Results taken from patent US10928381B2, “In vitro methods of monitoring autophagy in a human cell using a photoconvertable fluorescent protein linked biomarker” (The Regents of the University of Michigan, priority 2018, dated 2021).
“Also recorded” adds a separate entry of the source.

System: Dendra2-LC3 HEK cells
Experiment: Optical pulse labeling: time-dependent decay of photoconverted (red, RFP/TRITC) Dendra2-LC3 as measure of autophagic flux
Type: cell-based, human
Set-up: key to Hit class in screen of Enzo Autophagy compound library (9H RFP/0H RFP): enhancer: [Sample9H RFP/OH RFP]<[DMSO9H RFP/OH RFP−3SDDMSO]; inhibitor: [Sample9H RFP/OH RFP]>[DMSO9H RFP/OH RFP 3SDDMSO]
Conditions: for Dose dependence of effect on Dendra2-LC3 decay: increasing concentrations, RFP and GFP channels; for Degradation (decay) of photoconverted Dendra2-LC3: vs DMSO, Torin1 1 uM, Bafilomycin-A1 10 nM; for Degradation (decay) of photoconverted Dendra2-LC3 / Effect on torin1-induced Dendra2-LC3 degradation: red channel; for Effect on torin1-induced Dendra2-LC3 degradation: co-treatment with torin1
Experimental: FIGS. 8A-E. Time dependent decay of Dendra2-LC3 as an assay of autophagic flux. (FIG. 8A) Dendra2-LC3 reporter cells were imaged prior to photoconversion to measure background TRITC intensity. Immediately following photoconversion with a 5 second pulse of […] light, cells were treated with DMSO, 1 uM Torin1, or 10 nM Bafilomycin-A1 and then were subsequently imaged at the indicated time points. Images are psuedocolored to better highlight intensity differences. (FIGS. 8B-E) Time dependent changes in photoconverted Dendra2-LC3 fluorescence in the TRITC (FIGS. 8B, D) and GFP (FIGS. 8C, E) channels. Gray boxes represent the pre and post-photoconversion time points. TRITC intensity values are normalized, setting the background intensity prior to conversion to 0 and the post-conversion value to 1. GFP values are normalized to the pre-conversion intensity. Error bars represent the SEM from three replicate experiments. […] (FIG. 8C) Following photoconversion there is a 40% drop in GFP intensity. As new Dendra2-LC3 is synthesized, GFP levels return to pre-photoconversion levels over the span of 13.5 hours. […] Cells were transfected with 20 nM ATG5 siRNA two days prior to imaging.
FIG. 9A-C. Evaluating the efficacy of known autophagy modulators. (FIG. 9A) An unbiased screen of the Enzo Autophagy compound library identified several known autophagy compounds as hits providing construct validity to the assay. Rapamycin, NVP-BEZ235 and AKT inhibitor X, were among the compounds appropriately identified as enhancers while Bafilomycin registered as an inhibitor. […] Cells were imaged in RFP to measure background fluorescence, then photoconverted with a 4 second DAPI exposure and immediately imaged again to establish the postconversion intensity. Drugs from the Enzo Autophagy library were added at a concentration of 10 uM via a robotic liquid handler. 9 hours later the cells were imaged again in order to assess the efficacy of the drugs. Hits were defined as follows: enhancer: [Sample9H RFP/OH RFP]<[DMSO9H RFP/OH RFP−3SDDMSO], inhibitor: [Sample9H RFP/OH RFP]>[DMSO9H RFP/OH RFP 3SDDMSO]. […] Imaging of the compound library was repeated in GFP. Intensity values are reported 15 hours after drug treatment. (FIG. 9C) The reduction in Dendra2-LC3 half-life observed upon treatment of autophagic flux enhancers is attenuated with partial knockdown of ATG5. Cells were transfected with 20 nM ATG5 siRNA 2 days prior to imaging. Error bars represent SEM from three replicate experiments.
Experiments were conducted during development of embodiments herein to develop a sensitive method—optical pulse labeling (OPL)—that takes advantage of the photoconvertible fluorescent protein Dendra2 for estimations of autophagic flux in cellulo (Refs 14, 34; herein incorporated by reference in their entireties) (FIG. 1b). […] Dendra2 was fused to LC3, a specific marker of autophagosomes and itself an autophagy substrate (Refs. 27, 31; herein incorporated by reference in their entireties). Following photoconversion, the time-dependent reduction in red LC3-Dendra2 (FIG. 1c) is used to calculate protein half-life, representing an estimate of autophagy flux for individual cells (Refs. 14, 34; herein incorporated by reference in their entireties) Furthermore, because LC3 is degraded as autophagosomes mature, the return to steady-state levels of green Dendra2-LC3 after photoconversion (FIG. 1d) reflects activity within the pathway as a whole. The assay is noninvasive, permitting longitudinal analyses of autophagy kinetics in living cells, and amenable to HTS.
For these studies the potent mTOR inhibitor torin1 (Ref. 36; herein incorporated by reference in its entirety) was selected as a positive control for autophagy induction, and the vacuolar ATPase inhibitor bafilomycin-A1 (Ref. 37; herein incorporated by reference in its entirety) as a positive control for autophagy inhibition. In each case, DMSO served as a vehicle (negative) control. […]

SMILES	Dose dependence of effect on Dendra2-LC3 decay	Degradation (decay) of photoconverted Dendra2-LC3	Hit class in screen of Enzo Autophagy compound library (9H RFP/0H RFP) (10 uM, 9 hours after drug addition)	Effect on torin1-induced Dendra2-LC3 degradation (listed as BafilomycinA1)	Effect on torin1-induced Dendra2-LC3 degradation (listed as bafilomycin-A1)	Degradation (decay) of photoconverted Dendra2-LC3 (listed as bafilomycin)	Degradation (decay) of photoconverted Dendra2-LC3 (listed as bafilomycin-A1)
CCC(=O)N1CCN(c2ccc(-n3c(=O)ccc4cnc5ccc(-c6cnc7ccccc7c6)cc5c43)cc2C(F)(F)F)CC1 [Torin1, torin1]	increased in a dose dependent manner	significantly accelerates Dendra2-LC3 degradation; also recorded: accelerates decay; also recorded: significantly enhanced Dendra2-LC3 degradation					
CO/C1=C\C(C)=C\[C@@H](C)[C@@H](O)[C@@H](C)C/C(C)=C/C=C/[C@H](OC)[C@@H]([C@@H](C)[C@@H](O)[C@H](C)[C@@]2(O)C[C@@H](O)[C@H](C)[C@@H](C(C)C)O2)OC1=O [Bafilomycin-A1, bafilomycin-A1]	similar, tunable response		inhibitor	blocks induction by torin1	completely blocked the effects of torin1	extends it	slowed its clearance
